These results are taken from patent EP4245293B1, “USE OF SUGAR AMINES AS COMPLEXING AGENTS” (Clariant International Ltd, priority 2022, dated 2023).

What all share (format): physicochemical
A short description of data set [1]: Confirmation of complex formation with single chelants, Fe3+ ions.
Data set [2] is described as follows: Confirmation of complex formation with single chelants, Cu2+ ions.
Data set [3] in a line: Complexing ability test of Dimethylglucamine vs. Aminomethylpropanol. As to conditions: for Result: Cu^2+ solution 0,2 mmol/L, each chelant at 0.6 mmol/L, observed color and precipitate. On the procedure:
The relative complexing ability of the chelant Dimethylglucamine is evaluated vs. Aminomethylpropanol by observing color changes and precipitate formation. In particular Aminomethylpropanol was chosen since in the previous test c) it was shown that Aminomethylpropanol makes complex with Copper that differs in color of Copper complex with Dimethylglucamine. Therefore, it is possible to evaluate the strength of complexation of Aminomethylpropanol and Dimethylglucamine when both chelants are present in solution of Copper^2+ ions by observing the color of solution. To Cu^2+ solutions (c = 0,2 mmol/L), solutions of chelants are added: • Aminomethylpropanol at 0,6 mmol/L • Dimethylglucamine at 0,6 mmol/L • Aminomethylpropanol at 0,6 mmol/L + Dimethylglucamine 0,6 mmol/L

The nature of data set [4]: Complexing ability test vs. EDTA (color changes and precipitate formation). The settings on record: for Result: Fe^3+ solution 0,2 mmol/L, observed color and precipitate; for chelating strength for Iron^3+ ions relative to EDTA: both EDTA and chelant present, judged from the colored complex formed. The procedure:
The relative complexing ability of the chelant is evaluated vs. EDTA by observing color changes and precipitate formation.
To Fe^3+ and Cu^2+ solutions (c = 0,2 mmol/L), solutions of chelants are added: • Na4EDTA at 0,4 mmol/L • Na4EDTA at 2 mmol/L • Only chelant (Dimethylglucamine or Piroctone Olamine) at 0,6 mmol/L • Chelant (Dimethylglucamine or Piroctone Olamine) at 0,6 mmol/L + Na4EDTA 0,4 mmol/L • Chelant (Dimethylglucamine or Piroctone Olamine) at 0,6 mmol/L + Na4EDTA 2 mmol/L

The mark [5] stands for this setting: Fe^3+ solution 0,2 mmol/L with single chelant.
[6] abbreviates: Fe^3+ solution 0,2 mmol/L, single chelant added at c=0,2 mmol/L, observed color and precipitate.
Where [7] appears, read: Cu^2+ solution 0,2 mmol/L with single chelant.
[8] abbreviates: Cu^2+ solution 0,2 mmol/L, single chelant added at c=0,2 mmol/L, observed color and precipitate.

With `CC(C)(N)CO` [Aminomethylpropanol], the results for the pH in data set [1] (setting [5]) and in data set [2] (setting [7]) were 4.0 and 9.2, respectively. Further, the Result result in data set [1] (setting [6]) is recorded as “Clear solution with distinct orange precipitate”; in data set [2] (setting [8]) it was “Clear solution with distinct brown precipitate”; in data set [3], “Clear solution with distinct brown precipitate”.

Consider `CN(C)C[C@H](O)[C@@H](O)[C@H](O)[C@H](O)CO` [Dimethylglucamine, N,N-dimethylglucamine], for which the Result entry is “Clear solution with distinct orange precipitate” in data set [4] (only chelant at 0,6 mmol/L); “Clear solution with distinct orange precipitate” in data set [1] (setting [6]); “Clear, light blue solution” in data set [2] (setting [8]); “Clear light blue solution” in data set [3]. In data set [4], the “chelating strength for Iron^3+ ions relative to EDTA” value is reported as “stronger chelating agent than EDTA”. The “complexes formed with Iron^3+ ions” value in data set [1] is “distinct orange complexes”. In addition, the pH in data set [1] (setting [5]) is on record as 3.4; in data set [2] (setting [7]), 6.5. Besides, the “complexes formed with Copper^2+ ions” value in data set [2] is recorded as “blue complexes”. The “complex formed in presence of Aminomethylpropanol and Cu^2+ ions” value in data set [3] (both chelants present at 0,6 mmol/L) is “distinct blue complex of Dimethylglucamine is formed instead of brown complex of Aminomethylpropanol and Cu^2+ ions”.

Consider `O=C(O)CN(CCN(CC(=O)O)CC(=O)O)CC(=O)O` [EDTA, ethylenediaminetetraacetic acid], for which the Result entry in data set [4] (EDTA 0.4 mmol/L, alone or with chelant at 0,6 mmol/L) was “Clear, very slightly yellowish solution”; in data set [4] (EDTA 2 mmol/L, alone or with chelant at 0,6 mmol/L) it was “Clear, very slightly yellowish solution”; in data set [1] it was “Clear, very slightly yellowish solution”; in data set [2] it was “Clear, light blue solution”. The results for the pH in data set [1] and in data set [2] were 10.6 and 10.0, respectively.

Take `NCC(=O)O` [Glycine]: the pH in data set [1] (setting [5]) was 3.3; in data set [2] (setting [7]) it was 4.6. Also, the Result entry in data set [1] (setting [6]) is “Clear solution with distinct orange precipitate”; in data set [2] (setting [8]) it was “Clear, slightly bluish solution”.

Turning to `Cc1cc(CC(C)CC(C)(C)C)n(O)c(=O)c1.NCCO` (stereo not shown) [Piroctone Olamine], the Result entry is “Turbid yellowish solution with distinct orange precipitate” in data set [4] (only chelant at 0,6 mmol/L); “Turbid solution with distinct orange precipitate” in data set [1] (setting [6]); “Turbid, light blue solution” in data set [2] (setting [8]). For the same molecule, the “chelating strength for Iron^3+ ions relative to EDTA” value in data set [4] is given as “stronger than EDTA”. For the same molecule, the pH in data set [1] (setting [5]) came out at 3.8; in data set [2] (setting [7]) it was 8.3.
